Read-outs that look alike come from different tables or passages of the source.
Key:
[1] = tested on: NGF-induced ERK phosphorylation; assay: Inhibition of NGF-induced Erk 1/2 phosphorylation (pERK); type: cell-based; conditions: Rattus norvegicus, Table 2
Method: This assay is useful for establishing that the compounds of the invention are functional NGF antagonists, not receptor agonists (an agonist could conceivably block NGF binding but actually activate the receptor). Erk 1/2 is a kinase activated down stream of TrkA and is a well studied member of the NGF-induced signal transduction cascade.
PC12 cells expressing TrkA and p75 are acutely exposed to 1 ng/mL NGF (15 min; 37° C.; 5% CO2) that is pre-incubated (30 min; room temperature) with or without the compounds. Cells are lysed in Laemmli sample buffer (for SDS-PAGE) or a lysis buffer containing Triton X-100 (for ELISA). Following SDS-PAGE, proteins are electroblotted onto nitrocellulose and immunoprobed for phosphorylated Erk 1 and 2. Blocking and primary antibody incubations of immunoblots are performed in Tris-buffered saline-Tween (10 mM Tris, pH 8.0, 150 mM NaCl, and 0.2% Tween 20) supplemented with 5% (w/v) bovine serum albumin (BSA); secondary antibody incubations are performed in 5% (w/v) dried skim milk powder. Immunoreactive bands are detected by chemiluminescence.
A quantitative method to detect phosphorylated Erk 1/2 by immunofluorescence is also used. Neuroscreen-1 cells are grown in a 96 well plate. NGF preincubated with or without the compounds for 30 minutes, is added to the cells for 5 minutes at 37° C. Cells are then fixed and stained with an antibody against phosphor-ERK 1/2. A fluorescently labeled secondary antibody is used to show the presence of phosphorylated ERK 1/2. Quantitative results are generated by photographing the wells with light of the appropriate wavelength, followed by software based image analysis.

[2] = tested on: NGF receptors on PC12 cells (TrkA+p75); assay: NGF binding (125I-NGF) using PC12 cells; parameters: species or system rat
Method: NGF binding was evaluated using methods familiar to those who are skilled in the art. Briefly, cells expressing one or both NGF receptors (PC12: TrkA+p75; A875: p75 alone; HEK/CHO_trkA: TrkA alone) were harvested by replacing the medium with the cell dissociation buffer (Amersham) and incubating at 37° C. for 15 min. […] For most compounds, multiple dose-response curves were generated.
The IC50 data shown in Tables A-J were acquired using the procedure described herein using PC12 cells.

[3] = tested on: PC12 cells; assay: Inhibition of NGF-induced neurite outgrowth; type: cell-based; conditions: Rattus norvegicus, PC-12, 96 h, Table 3, 4 days exposure to NGF
Method: This assay is run as a further functional marker of NGF antagonism and takes advantage of the differentiation of PC12 cells (neurite outgrowth) induced by NGF. Cultures of PC12 cells are grown on Terasaki plates pre-coated with poly-D-lysine. Cells are exposed to NGF (1-50 (preferably 5) ng/ml) to induce neurite outgrowth as described elsewhere [LA Greene & AS Tischler, Establishment of a noradrenergic clonal line of rat adrenal pheochromocytoma cells which respond to nerve growth factor, Proc Natl Acad Sci USA. 1976 July; 73(7): 2424-2428]. In addition to NGF, cells are exposed to varying concentration of the compounds or vehicle. Following 4 days of exposure to NGF in the presence or absence of compound, neurite outgrowth is quantified. A neurite is scored if its caliber from origin to terminal is approximately the same and the length is equal to or greater than 1.5 the cell body diameter. The number of neurite bearing cells per total number of viable cells is calculated for each condition; the number of cells with neurites in the presence of NGF (without compound exposure) is considered to represent maximal (100%) outgrowth, to which the inhibitory effect of compounds of the invention on NGF-induced outgrowth is compared.

[4] = Table A (Formula Ia), NGF binding, PC12 cells, read-out: IC50
[5] = Table B (Formula Ib), NGF binding, PC12 cells, read-out: IC50
[6] = Table 3, read-out: NGF Binding Assay IC50
[7] = Table I (Formula VII), NGF binding, PC12 cells, read-out: IC50
[8] = Table 2, read-out: NGF Binding Assay IC50
[9] = Table J (Formula VIII), NGF binding, PC12 cells, read-out: IC50

O=C(O)CCCN1C(=O)c2ccc(-c3ccc4c(c3)C(=O)N(CCCC(=O)O)C4=O)cc2C1=O [Compound 1C]
IC50 [1]: 0.1 to 5 µM

O=C(O)CCCN1C(=O)c2ccc(C(=O)O)cc2C1=O [Compound 1]
IC50 [2, 4]: > 50 µM

O=C(O)CCCCN1C(=O)c2ccc(C(=O)O)cc2C1=O [Compound 2]
IC50 [2, 4]: > 50 µM

O=C(O)c1ccc(Cl)c(N2C(=O)c3ccc4c5c(ccc(c35)C2=O)C(=O)N(c2cc(C(=O)O)ccc2Cl)C4=O)c1 [Compound 3D]
IC50 [3]: 0.1 to 5 µM

O=C(O)c1cccc(N2C(=O)c3ccc(C(=O)O)cc3C2=O)c1 [Compound 3]
IC50 [2, 4]: > 50 µM

O=C(O)c1ccc2c(c1)C(=O)N(c1cc(C(=O)O)ccc1Cl)C2=O [Compound 6]
IC50 [2, 4]: > 50 µM

N#Cc1ccc2c(c1)CN(c1cccc(C(=O)O)c1)C2=O [Compound 8A]
IC50 [2, 5]: > 50 µM

O=C(O)CCN1C(=O)c2ccc(-c3ccc4c(c3)C(=O)N(CCC(=O)O)C4=O)cc2C1=O [Compound 9C]
IC50 [1]: 5 to 15 µM

Nc1ccc(C(=O)O)cc1N1C(=O)c2ccc3c4c(ccc(c24)C1=O)C(=O)N(C(CCC(=O)O)C(=O)O)C3=O (stereo not drawn) [Compound 9D]
IC50 [3]: 0.1 to 5 µM
IC50 [1]: 5 to 15 µM

O=C(O)CCCCN1C(=O)c2ccc(-c3ccc4c(c3)C(=O)N(CCCCC(=O)O)C4=O)cc2C1=O [Compound 10C]
IC50 [1]: 0.1 to 5 µM

O=C1c2ccc(-c3ccc4c(c3)C(=O)N(CCCS(=O)(=O)O)C4=O)cc2C(=O)N1CCCS(=O)(=O)O [Compound 11C]
IC50 [1]: 0.1 to 5 µM

O=C(O)c1cccc(N2Cc3cc(C(=O)O)ccc3C2=O)c1 [Compound 12A, 2-(3-Carboxyphenyl)-1-oxoisoindoline-5-carboxylic acid]
IC50 [3]: 5 to 15 µM
IC50 [2, 6]: 10 to 29 µM
IC50 [2, 5]: 10 to 29 µM

CCOC(=O)c1cccc(N2Cc3cc(C(=O)O)ccc3C2=O)c1 [Compound 15A]
IC50 [1]: 5 to 15 µM

CN(C)c1cc2c3c(cc(N(C)C)cc3c1)C(=O)N(CCCC(=O)O)C2=O [Compound 15G]
IC50 [2, 7]: 30 to 50 µM

CC(C)Nc1cc2c3c(cc(NC(C)C)cc3c1)C(=O)N(CCCC(=O)O)C2=O [Compound 16G]
IC50 [2, 7]: 10 to 29 µM

O=C(O)CCCN1C(=O)c2cc(C(=O)O)cc3cc([N+](=O)[O-])cc(c23)C1=O [Compound 17G, 2-(3-Carboxypropyl)-8-nitro-1,3-dioxo-2,3-dihydro-1H-benzo[de]isoquinoline-5-carboxylic acid]
IC50 [2, 7]: < 10 µM

Nc1cc2c3c(cc(C(=O)O)cc3c1)C(=O)N(CCCC(=O)O)C2=O [Compound 18G, 8-Amino-2-(3-carboxypropyl)-1,3-dioxo-2,3-dihydro-1H-benzo[de]isoquinoline-5-carboxylic acid]
IC50 [2, 7]: < 10 µM

O=C(O)c1ccc(Cl)c(N2C(=O)c3cccc([N+](=O)[O-])c3C2=O)c1 [Compound 18]
IC50 [2, 4]: > 50 µM

O=C(O)CCCCCN1C(=O)c2ccc(-c3ccc4c(c3)C(=O)N(CCCCCC(=O)O)C4=O)cc2C1=O [Compound 19C]
IC50 [1]: 0.1 to 5 µM

CC(=O)Nc1cc2c3c(cc(C(=O)O)cc3c1)C(=O)N(CCCC(=O)O)C2=O [Compound 19G, 8-(Acetylamino)-2-(3-carboxypropyl)-1,3-dioxo-2,3-dihydro-1H-benzo[de]isoquinoline-5-carboxylic acid]
IC50 [1]: 5 to 15 µM
IC50 [2, 8]: < 10 µM
IC50 [2, 7]: < 10 µM

N#Cc1cc2c3c(cc(C#N)cc3c1)C(=O)N(CCCC(=O)O)C2=O [Compound 20G]
IC50 [2, 7]: < 10 µM

O=C(O)CCCCCCN1C(=O)c2ccc(-c3ccc4c(c3)C(=O)N(CCCCCCC(=O)O)C4=O)cc2C1=O [Compound 21C]
IC50 [1]: 5 to 15 µM

O=C(O)c1cccc(N2C(=O)c3cc(-n4cccc4)cc4cc(-n5cccc5)cc(c34)C2=O)c1 [Compound 21G]
IC50 [2, 7]: > 50 µM

O=C(O)CCCCCCCN1C(=O)c2ccc(-c3ccc4c(c3)C(=O)N(CCCCCCCC(=O)O)C4=O)cc2C1=O [Compound 22C]
IC50 [1]: 5 to 15 µM

O=C(O)CCCN1C(=O)c2ccc(-c3ccc4c(c3)C(=O)N(CCCc3nnn[nH]3)C4=O)cc2C1=O [Compound 23C]
IC50 [1]: 0.1 to 5 µM

O=C(O)CCCN1C(=O)c2cccc3cccc(c23)C1=O [Compound 26G]
IC50 [2, 9]: > 50 µM

O=C(O)CCCN1C(=O)c2cccc3cc([N+](=O)[O-])cc(c23)C1=O [Compound 27G, 4-(5-Nitro-1,3-dioxo-1H-benzo[de]isoquinolin-2(3H)-yl)butanoic acid]
IC50 [2, 9]: < 10 µM

Nc1cc2c3c(cccc3c1)C(=O)N(CCCC(=O)O)C2=O [Compound 28G, 4-(5-Amino-1,3-dioxo-1H-benzo[de]isoquinolin-2(3H)-yl)butanoic acid]
IC50 [2, 9]: < 10 µM

CC(=O)Nc1cc2c3c(cccc3c1)C(=O)N(CCCC(=O)O)C2=O [Compound 29G]
IC50 [2, 9]: < 10 µM

NC(=O)c1cc2c3c(cccc3c1)C(=O)N(CCCC(=O)O)C2=O [Compound 30G]
IC50 [2, 9]: 10 to 29 µM

CN(C)S(=O)(=O)c1cc2c3c(cccc3c1)C(=O)N(CCCC(=O)O)C2=O [Compound 31G]
IC50 [2, 9]: > 50 µM

N#Cc1cc2c3c(cccc3c1)C(=O)N(CCCC(=O)O)C2=O [Compound 32G]
IC50 [3]: 5 to 15 µM
IC50 [1]: 5 to 15 µM
IC50 [2, 8]: < 10 µM
IC50 [2, 6]: < 10 µM
IC50 [2, 9]: < 10 µM

O=C(O)CCCN1C(=O)c2cccc3cc(C(=O)O)cc(c23)C1=O [Compound 33G]
IC50 [2, 9]: 10 to 29 µM

N#Cc1ccc2c3c(cccc13)C(=O)N(CCCC(=O)O)C2=O [Compound 34G]
IC50 [2, 9]: 10 to 29 µM

O=C(O)CCCN1C(=O)c2cccc3c([N+](=O)[O-])ccc(c23)C1=O [Compound 35G]
IC50 [2, 9]: 10 to 29 µM

O=C(O)CCCN1C(=O)c2cccc3c(Br)ccc(c23)C1=O [Compound 36G]
IC50 [2, 9]: 30 to 50 µM

O=C(O)CCCN1C(=O)c2cccc3c(S(=O)(=O)O)ccc(c23)C1=O [Compound 37G]
IC50 [2, 9]: > 50 µM

O=C(O)CCCN1C(=O)c2cccc3c(Cl)ccc(c23)C1=O [Compound 38G]
IC50 [2, 9]: 10 to 29 µM

O=C(O)CCCN1C(=O)c2cccc3c(C(=O)O)ccc(c23)C1=O [Compound 39G]
IC50 [2, 9]: 10 to 29 µM

O=C(O)CCCN1C(=O)c2cccc3c(C(=O)c4ccccc4)ccc(c23)C1=O [Compound 40G]
IC50 [2, 9]: 10 to 29 µM

O=C(O)c1ccc2c(c1)C(=O)N(CCN1C(=O)c3ccc(C(=O)O)cc3C1=O)C2=O [Compound 41C]
IC50 ([2]; Table E (Formula IIIA), NGF binding, PC12 cells, read-out: IC50): < 10 µM

CN(C)S(=O)(=O)c1ccc2c3c(cccc13)C(=O)N(CCCC(=O)O)C2=O [Compound 41G]
IC50 [2, 9]: < 10 µM

O=C(O)CCCN1C(=O)c2cccc3cc(-c4cccc(C(=O)O)c4)cc(c23)C1=O [Compound 45G]
IC50 [1]: 15 to 25 µM

O=C(O)CCCN1C(=O)c2cccc3cc(-c4nnn[nH]4)cc(c23)C1=O [Compound 46G]
IC50 [3]: 5 to 15 µM
IC50 [1]: 5 to 15 µM

Reference: patent US20090082368A1, “METHODS OF MODULATING NEUROTROPHIN-MEDIATED ACTIVITY” (PainCeptor Pharma Corporation, priority 2007, published 2009)
